Each structure is given as a SMILES string. Read-outs that look alike come from different tables or passages of the source.

Data set [1] deals with phosphorylation of ERK, PLCγ1, and PI3K in HCC38 cells. The data set is described as follows: EGFR signaling pathway Western blotting, HCC38. As to conditions: 10 ng/mL EGF, 30 µM, 24 h. Type of data set: cell-based. As for the experimental part: (§1) MDA-MB-468 cells and HCC38 cells grew in the presence of EGF with or without NP-G2-044. […] Finally, we used the animal model to investigate whether the primary tumor growth of MDA-MB-468 cells was sensitive to fascin inhibitors. MDA-MB-468 tumor cells were implanted into the mammary gland of NSG mice, and these mice were randomly divided into four groups. One group of mice was used as control (Figure 6I). The second group of mice was treated with the fascin inhibitor NP-G2-044 (Figure 6I). The third group was treated with the EGFR inhibitor gefitnib (Figure 6I), and the fourth group was treated with the combination of NP-G2-044 + gefitinib (Figure 6I). […] We dissected the primary tumor tissues 55 days after the tumor implantation from some mice. […] Furthermore, the overall survival of the mice was analyzed (Figure 6K).
(§2) For the cell signal pathway analysis of breast cancer cells, HCC38 and MDA-MB-468 cells were plated in a 10-cm dish. After culture for 24 h, cells were incubated in serum-free medium for 16 h.

Data set [2] concerns phosphorylation of PI3K, AKT, JNK, and STAT6. The data set is described as follows: Western blotting of signaling pathways in U2932 cells. Format: cell-based. The note with it: 30 µM, 16 h. As for the experimental part:
We treated U2932 cells with or without NP-G2-044, and measured the potential effects of NP-G2-044 on various pathways critical for lymphoma cell growth.
The lymphoma cells were plated in 10-cm dish. After culture for 24 h, cells were incubated in serum-free medium for 16 h. Cells were then incubated in growth medium with 30 µM NP-G2-044 or dissolvent for 16 h, followed by collecting whole cell lysates or nuclear extracts as previously described.
(In general: In western blotting, separated proteins are transferred to a membrane and probed.)

The test system of data set [3] is phosphorylation of ERK, PLCγ1, and PI3K in MDA-MB-468 cells. The data set is described as follows: EGFR signaling pathway Western blotting, MDA-MB-468. Format: cell-based. As to conditions: 10 ng/mL EGF, 30 µM, 24 h. As for the experimental part:
as §1, §2

Data set [4] has as its system MDA-MB-231 human triple-negative breast cancer cells. As to conditions: for inhibition of lung metastasis / IC50, metastasized tumor cells in the lungs: NSG mice, oral; for IC50, metastasized tumor cells in the lungs: six days a week, eight weeks. The procedure:
We used two mouse models. In the first orthotopic spontaneous tumor metastasis mouse model, MDA-MB-231 human triple-negative breast cancer cells were injected into the orthotopic site (the mammary gland) of immuno-deficient NSG mice, and then the metastasis to the lung was monitored (Figure 2A–C). Seven days after the implantation of MDA-MB-231 tumor cells, we orally administered the mice with different concentrations of NP-G2-044 either once a day or twice a day for six days a week. After eight weeks, the mice were sacrificed and examined for metastasis in the lungs. […] Lung tumor metastasis was further verified by a histological analysis of lung sections and stained with hematoxylin and eosin (Figure 2C).
MDA-MB-231 cells (subclone LM2) (1 × 10^5) suspended in PBS-matrigel (v/v, 1:1) were injected subcutaneously into the abdominal mammary gland area of female NSG mice (6- to 8-week old from the Jackson Lab) on day 0 as previously described. Starting on Day 7, NP-G2-044 or the control solvent was given once or twice a day for 6 days every week by gavage until the eighth week. On the first day of the ninth week, the mice were killed.
The numbers of metastatic MDA-MB-231 cells in lungs were determined by a clonogenic assay. The lungs were removed from each mouse once sacrificed, and the resulting cells were suspended and plated with a series of dilutions in 10-cm tissue culture dishes in medium containing 2.0 µg/mL puromycin for clonogenic growth. As these MBA-MB-231 tumor cells were stably transfected with the vector pSuper-puro, the metastasized tumor cells formed foci after 14 days, at which time they were fixed with 4% paraformaldehyde and stained with crystal violet staining solution for counting. For combination treatments with chemotherapy, MDA-MB-231 tumor cells (1 × 10^5) suspended in PBS-matrigel (v/v, 1:1) were injected subcutaneously into the abdominal mammary gland area of mice on Day 0. Starting on Day 0, 7, or 14, NP-G2-044 was given to mice once a day for 6 days every week by oral gavage at 300 mg/kg per mouse. A vehicle solvent was given to the control mice once a day for 6 days every week. Starting on day 14, doxorubicin hydrochloride (MilliporeSigma, St. Louis, MO, USA) (2 mg/kg) and cyclophosphamide monohydrate (MilliporeSigma) (60 mg/kg) were given to mice once a week for four weeks. Primary tumors were removed on day 28. The death of the mice was used as the endpoint.

The test system of the next data set is HT lymphoma cells. The data set is described as follows: HT lymphoma model in NSG mice (tumor growth, overall survival). Format: in vivo. The note with it: 300 mg/kg gavage once a day 5 days every week from day 28, vs control. As for the experimental part:
HT cells (5 × 10^6) suspended in PBS-matrigel (v/v, 1: 1) were subcutaneously injected into NSG mice on day 0. Starting on day 28, NP-G2-044 or the control solvent was given once a day for 5 days every week by gavage at 300 mg kg^−1 per mouse until their death.

Data set [5] has as its system BT-20 triple-negative breast cancer cells. The data set is described as follows: Cell growth assay, BT-20. Type of data set: cell-based. As to conditions: BT-20 cells in culture, 10% serum.
The subject of a further data set is Ly10 cells. The data set is described as follows: Soft-agar colony formation assay, Ly10. Type of data set: cell-based. The note with it: 14 days, dosage-dependent. As for the experimental part:
A total of 1 × or 2 ×10^4 cells were suspended in 0.5 mL of 0.3% low melting point agar (Merck KGaA, Darmstadt, Germany) in RPMI-1640 or DMEM containing 10% FBS and control solvent or the inhibitors. This suspension was overlaid on pre-solidified with 0.6% agar in the same medium in 24-well plates as previously described. Normal growth medium containing control solvent or the inhibitors was gently layered over the cultures every 4 days for 14 days. The colonies were stained with 0.1% crystal violet for 1 h at room temperature and counted under a microscope.

On to `Cc1occc1C(=O)Nc1nn(Cc2ccc(C(F)(F)F)cc2)c2ccccc12` [NP-G2-044], for which the “phosphorylation of ERK, PLCγ1, and PI3K” value in data set [1] and in data set [3] was “affected” throughout. Moreover, the “phosphorylation of PI3K, AKT kinase, JNK kinase, and STAT6 transcription factor” value in data set [2] is listed as “no effect”. The “inhibition of lung metastasis” value in data set [4] (100 mg/kg twice a day) is “almost completely inhibition”; in data set [4] (300 mg/kg once a day), “almost complete inhibition”. In addition, the “IC50, metastasized tumor cells in the lungs” value in data set [4] (once a day) worked out at 78.7 mg/kg; in data set [4] (twice a day), 29.2 mg/kg. Moreover, in data set [4] (mouse, in vivo), the “tolerability of dosage regimen” value is on record as “well tolerated with no signs of overt toxicity”. In the data set on HT lymphoma cells, the primary tumor growth result is given as “decreased”. In addition, the overall survival entry in the data set with HT lymphoma cells (logrank p = 0.002) is “increased”. Also, the growth sensitivity result in data set [5] is reported as “sensitive”. For the same compound, in the data set with Ly10 cells, the “number of growing colonies” value was “decreased the number of growing colonies”.

The values above are taken from PMC7466159, “Anti-Metastasis Fascin Inhibitors Decrease the Growth of Specific Subtypes of Cancers” (Cancers, 2020).
